Experiments:
PBP2WT = PBP2WT (Clostridioides difficile, UniProt A0A9R0CDX1); test: biochemical; type: binding
PBP2D515N = target: T1, PBP2D515N (Clostridioides difficile, UniProt A0A9R0CDX1, D515N); test: biochemical; type: binding
T1 sequence (A0A9R0CDX1 36-962 D515N): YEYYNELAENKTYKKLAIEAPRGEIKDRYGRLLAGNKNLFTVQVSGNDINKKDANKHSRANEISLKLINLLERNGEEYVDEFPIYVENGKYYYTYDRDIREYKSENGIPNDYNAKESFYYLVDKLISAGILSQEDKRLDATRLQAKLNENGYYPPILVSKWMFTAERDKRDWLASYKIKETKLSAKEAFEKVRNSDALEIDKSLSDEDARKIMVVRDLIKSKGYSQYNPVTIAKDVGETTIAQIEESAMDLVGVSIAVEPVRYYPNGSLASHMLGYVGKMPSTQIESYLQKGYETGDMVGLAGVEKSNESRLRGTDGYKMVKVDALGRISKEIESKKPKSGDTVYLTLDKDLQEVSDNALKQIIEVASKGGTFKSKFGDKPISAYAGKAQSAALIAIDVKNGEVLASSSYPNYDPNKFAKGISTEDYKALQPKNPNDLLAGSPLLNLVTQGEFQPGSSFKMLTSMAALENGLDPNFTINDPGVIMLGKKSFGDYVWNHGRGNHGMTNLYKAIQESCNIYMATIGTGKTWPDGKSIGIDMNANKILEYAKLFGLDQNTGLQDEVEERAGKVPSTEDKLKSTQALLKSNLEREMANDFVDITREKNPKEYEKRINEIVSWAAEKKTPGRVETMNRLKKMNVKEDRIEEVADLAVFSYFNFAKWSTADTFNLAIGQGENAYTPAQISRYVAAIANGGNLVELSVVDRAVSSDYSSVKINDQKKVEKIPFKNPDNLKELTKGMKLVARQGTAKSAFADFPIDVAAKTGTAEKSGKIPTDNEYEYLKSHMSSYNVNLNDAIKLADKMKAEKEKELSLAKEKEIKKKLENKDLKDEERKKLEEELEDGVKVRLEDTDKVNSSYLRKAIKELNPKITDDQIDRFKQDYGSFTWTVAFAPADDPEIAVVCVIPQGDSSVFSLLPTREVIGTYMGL

PBP2 = settings: 2 mM EDTA
C. difficile = system: C. difficile; parameters: method as in PMID 29533126; settings: cited from earlier work

Cc1cc(C)n2c1C=C1C=CC(CCC(=O)Nc3ccc(OCC(=O)N[C@@H]4C(=O)N5[C@@H]4SC(C)(C)[C@@H]5C(=O)O)cc3)=[N+]1[B-]2(F)F [bocillin]
Kd (PBP2WT): 2.95 ± 0.72 µM | Kd (PBP2D515N): 16.7 ± 2.72 µM

O=C(O)CN(CCN(CC(=O)O)CC(=O)O)CC(=O)O [EDTA]
PBP2 activity (PBP2): not affected

B1: calprotectin: a protein secreted by the immune system in response to intestinal inflammation; chelator of divalent cations such as Ca2+ and Zn2+ (protein, UniProt P05109 1-93; P06702 1-114, looked up)
Protein S100-A8: MLTELEKALNSIIDVYHKYSLIKGNFHAVYRDDLKKLLETECPQYIRKKGADVWFKELDINTDGAVNFQEFLILVIKMGVAAHKKSHEESHKE
Protein S100-A9: MTCKMSQLERNIETIINTFHQYSVKLGHPDTLNQGEFKELVRKDLQNFLKKENKNEKVIEHIMEDLDTNADKQLSFEEFIMLMARLTWASHEKMHEGDEGPGHHHKPGLGEGTP
C. difficile growth (in words) (C. difficile): inhibits C. difficile growth
